Assay results taken from the NIST ThermoML archive (doi:10.1021/je7006549).

What was measured:
[1] = 101 kPa, Liquid
[2] = mn = molality of the nth substance listed, in mol/kg; details: 101 kPa, Liquid

Cc1ccccc1C [1,2-dimethylbenzene]
[1]
Details	mass density [kg/m3]	viscosity [mPa·s]
303.15 K	872.1	0.7404
308.15 K	867.7	0.69
313.15 K	864	0.6451
318.15 K	859.7	0.6117
323.15 K	855.5	0.5711
328.15 K	851.2	0.5433
333.15 K	847.1	0.5105

Cc1cccc(C)c1 [1,3-dimethylbenzene]
[1]
Details	mass density [kg/m3]	viscosity [mPa·s]
303.15 K	855.6	0.549
308.15 K	851.1	0.5201
313.15 K	846.9	0.4967
318.15 K	842.4	0.4817
323.15 K	838.3	0.444
328.15 K	833.7	0.435
333.15 K	829.6	0.413

Cc1ccc(C)cc1 [1,4-dimethylbenzene]
[1]
Details	mass density [kg/m3]	viscosity [mPa·s]
303.15 K	852	0.5726
308.15 K	847.7	0.5374
313.15 K	843.2	0.5178
318.15 K	838.7	0.4882
323.15 K	834.5	0.4595
328.15 K	829.9	0.4439
333.15 K	825.6	0.4189

CC1=CC(=O)c2ccccc2C1=O [2-methyl-1,4-naphthalenedione] + Cc1ccccc1
[2]
Details	mass density [kg/m3]	viscosity [mPa·s]
303.15 K, m1 = 0.0454	859.6	0.5365
303.15 K, m1 = 0.0909	861.7	0.544
303.15 K, m1 = 0.1365	863.8	0.5487
303.15 K, m1 = 0.1817	865.9	0.5572
303.15 K, m1 = 0.227	868	0.5612
303.15 K, m1 = 0.2728	870.1	0.5683
308.15 K, m1 = 0.0454	855	0.5088
308.15 K, m1 = 0.0909	857.1	0.516
308.15 K, m1 = 0.1365	859.2	0.5185
308.15 K, m1 = 0.1817	861.3	0.5246
308.15 K, m1 = 0.227	863.4	0.5277
308.15 K, m1 = 0.2728	865.5	0.5346
313.15 K, m1 = 0.0454	850	0.4814
313.15 K, m1 = 0.0909	852.1	0.488
313.15 K, m1 = 0.1365	854.2	0.4902
313.15 K, m1 = 0.1817	856.3	0.4955
313.15 K, m1 = 0.227	858.4	0.4987
313.15 K, m1 = 0.2728	860.5	0.5051
318.15 K, m1 = 0.0454	845.6	0.4535
318.15 K, m1 = 0.0909	847.7	0.4582
318.15 K, m1 = 0.1365	849.8	0.463
318.15 K, m1 = 0.1817	851.9	0.4677
318.15 K, m1 = 0.227	854	0.4753
318.15 K, m1 = 0.2728	856.1	0.4775
323.15 K, m1 = 0.0454	840.8	0.4321
323.15 K, m1 = 0.0909	842.9	0.4362
323.15 K, m1 = 0.1365	845	0.439
323.15 K, m1 = 0.1817	847.1	0.443
323.15 K, m1 = 0.227	849.2	0.4459
323.15 K, m1 = 0.2728	851.3	0.4515
328.15 K, m1 = 0.0454	836.1	0.413
328.15 K, m1 = 0.0909	838.2	0.4147
328.15 K, m1 = 0.1365	840.3	0.4176
328.15 K, m1 = 0.1817	842.4	0.4208
328.15 K, m1 = 0.227	844.5	0.4242
328.15 K, m1 = 0.2728	846.6	0.4303
333.15 K, m1 = 0.0454	831.2	0.3872
333.15 K, m1 = 0.0909	833.3	0.3909
333.15 K, m1 = 0.1365	835.4	0.3927
333.15 K, m1 = 0.1817	837.5	0.398
333.15 K, m1 = 0.227	839.6	0.4065
333.15 K, m1 = 0.2728	841.7	0.4137

CC1=CC(=O)c2ccccc2C1=O [2-methyl-1,4-naphthalenedione] + Cc1ccccc1C
[2]
Details	mass density [kg/m3]	viscosity [mPa·s]
303.15 K, m1 = 0.0436	873.9	0.7432
303.15 K, m1 = 0.0884	875.8	0.7496
303.15 K, m1 = 0.1326	877.7	0.7581
303.15 K, m1 = 0.1767	879.6	0.7658
303.15 K, m1 = 0.2215	881.6	0.7765
303.15 K, m1 = 0.2656	883.5	0.7833
308.15 K, m1 = 0.0436	869.5	0.6988
308.15 K, m1 = 0.0884	871.4	0.7021
308.15 K, m1 = 0.1326	873.3	0.7081
308.15 K, m1 = 0.1767	875.2	0.7159
308.15 K, m1 = 0.2215	877.2	0.726
308.15 K, m1 = 0.2656	879.1	0.7348
313.15 K, m1 = 0.0436	865.8	0.6532
313.15 K, m1 = 0.0884	867.7	0.6592
313.15 K, m1 = 0.1326	869.6	0.6687
313.15 K, m1 = 0.1767	871.5	0.6742
313.15 K, m1 = 0.2215	873.5	0.681
313.15 K, m1 = 0.2656	875.4	0.6888
318.15 K, m1 = 0.0436	861.5	0.6212
318.15 K, m1 = 0.0884	863.4	0.6256
318.15 K, m1 = 0.1326	865.3	0.6319
318.15 K, m1 = 0.1767	867.2	0.6407
318.15 K, m1 = 0.2215	869.2	0.6473
318.15 K, m1 = 0.2656	871.1	0.6525
323.15 K, m1 = 0.0436	857.3	0.5792
323.15 K, m1 = 0.0884	859.2	0.5832
323.15 K, m1 = 0.1326	861.1	0.5905
323.15 K, m1 = 0.1767	863	0.5967
323.15 K, m1 = 0.2215	865	0.6011
323.15 K, m1 = 0.2656	866.9	0.6087
328.15 K, m1 = 0.0436	853	0.5498
328.15 K, m1 = 0.0884	854.9	0.5531
328.15 K, m1 = 0.1326	856.8	0.5601
328.15 K, m1 = 0.1767	858.7	0.5665
328.15 K, m1 = 0.2215	860.7	0.5706
328.15 K, m1 = 0.2656	862.6	0.5773
333.15 K, m1 = 0.0436	848.9	0.5177
333.15 K, m1 = 0.0884	850.8	0.5202
333.15 K, m1 = 0.1326	852.7	0.5277
333.15 K, m1 = 0.1767	854.6	0.5309
333.15 K, m1 = 0.2215	856.6	0.5358
333.15 K, m1 = 0.2656	858.5	0.5412
